This is an account of results in ChEMBL document CHEMBL1129532, “Geranylgeranyl diphosphate-based inhibitors of post-translational geranylgeranylation of cellular proteins” (J Med Chem, 1996).

Experiment [1] addresses T1, Geranylgeranyl transferase type I (Homo sapiens, UniProt P49354+P53609). The experiment is described as follows: Inhibition of geranylgeranylation of P21rap in human PC-3 prostate cancer cells. The format is functional, cell-based.
Experiment [2] deals with PC-3 cells (Homo sapiens). The experiment is described as follows: Inhibition of human PC-3 prostate cancer cell line proliferation.
Experiment [3] has as its target T1, Geranylgeranyl transferase type I. Briefly: Inhibition of geranylgeranylation of P21rap in human PC-3 prostate cancer cells; values are per cent of control.

A word on the IC50: it is the concentration that inhibits the measured activity by half. Read a low IC50 as higher potency. `CCOP(=O)(O)CC(=O)NOC/C=C(\C)CC/C=C(\C)CC/C=C(\C)CCC=C(C)C`: the IC50 in experiment [1] was 40.2 µM; in experiment [2], 35.1 µM.
For orientation: residual activity means the share of the control activity or signal that is left under treatment. In the case of `CC(C)=CCC/C(C)=C/CC/C(C)=C/CC/C(C)=C/COC(=O)NS(N)(=O)=O`, the IC50 in experiment [1] is 28.2 µM; in experiment [2], 22.2 µM. The residual activity in experiment [3] came out at 10.8%.
